Results on 8 molecules are retold here after patent publication US20250084056A1, “SUBSTITUTED OXOISOINDOLINYL PIPERIDINE-2,6-DIONE COMPOUNDS” (BRISTOL-MYERS SQUIBB COMPANY, priority 2023, published 2025).

Type in all cases: cell-based
The target in one assay is GSPT1 (Homo sapiens, UniProt P15170+Q96SW2). Nature of the assay: GSPT1 Cellular Degradation Assay (DF15-GSPT1-ePL). To be noted: DF15-GSPT1-ePL cells, 20 hours. Details: expressed in transfected cells. The text has this: DF15-GSPT1-ePL was used for intracellular GSPT1 protein degradation detection in form of chemiluminescent signal, which was built on a human DF15 cell line (CVCL_Y429) with conditional co-expression of chimeric GSPT1 (target) and ePL/donor (enhanced ProLabel® by DiscoverX for enzyme fragment complementation with donor-acceptor pairing). The cells used the culture medium in two arrangements for assay and maintenance. During assay, it used Core-RPMI 1640 medium with 10% Fetal Bovine Serum (Heat Inactivated) and 1× Penicillin/Streptomycin; and during passage maintenance, used added ingredients: 0.1 mM NEAA, 1 mM sodium pyruvate, 25 mM Hepes, 0.1% Pluronic F-68, 1× Glutamin, 4 μg/mL Blasticidin (selection agent). Detection was performed on a 1536 well tissue culture plate (Corning #3727) with cells seeded in 3.5 μL core-RPMI 1640 at density of 0.25 million/mL after the pre-titrated test compounds in DMSO on ECHO plate were dispensed onto the assay plate by use of ECHO (liquid handing system via acoustic energy from Labcyte). Assay incubation lasted 20 hours in 37° C. incubator with 5% CO2; then followed by 30 minutes of plate-cooling at room temperature; then detection-reagent-mix was added in 3.5 μL/well with pre-defined proportion of enzyme acceptor, substrate, and lysis buffer. Plate signal reading for luminescence on an EnVision plate reader (PerkinElmer) was conducted after 60 minutes of former step at room temperature. Raw data was collected and processed with Dotmatics (data analyzer) for test compound's potency values. The reference compound, 3-[5-(3,6-dimethoxyisoquinolin-1-yl)-1-oxo-2,3-dihydro-1H-isoindol-2-yl]piperidine-2,6-dione, at […] was used to define 75% response. Assay results for each compound were reported as DC50, the concentration giving 50% response, and Dmax, the maximum response observed with the compound.

For a further assay, the system named is Phospho-Rb (Ser807/811). Briefly: Phospho-Retinoblastoma (pRB) Cellular Assay. To be noted: Homo sapiens, OVCAR-3, NIH OVCAR3 cells, 24 hours; for IC50: concentration giving 50% response; for Emax: maximum response, reference compound at 10 μM = 100%, read-out: pRB Ymax. The procedure:
Phospho-Retinoblastoma (pRB) Cellular Assay
NIH OVCAR3 (HTB-161, American Type Culture Collection, Manassas VA) cells were grown up to passage 10 in culture media made up of RPMI (11835-030 Gibco, Grand Island NY), 20% HI FBS (16140-071, Gibco, Grand Island NY), and 0.01 mg/mL insulin from bovine pancreas (I6634-1G, Sigma Aldrich, St. Louis, MO).
The cells were seeded in a 384-well CulturPlate (6007688, Perkin Elmer, Waltham MA) at a density of 10,000 cells/well in 20 μL of the above culture media and incubated overnight at 37° C. and 5% CO2.
The next day, cells were treated using an Echo 650 (Beckman Coulter, Indianapolis IN) acoustic dispenser with 40 nL of compounds dissolved in DMSO at the appropriate serial dilutions (10 mM to […]). Cells were then incubated for 24 hours as above.
After 24 hours elapsed, media was removed from each well and shortly after 20 μL of the following mix was added: 12 μL deionized water, 4 μL lysis buffer, 4 μL of reconstituted antibody mix, and 1:100 phosphatase inhibitor. These components belong to the Phospho-Rb (Ser807/811) Cellular Kit (64RBS807PEY, Perkin Elmer, Waltham MA).
Plates were sealed and incubated away from light at room temperature for at least 4 hours before reading them on an EnVision plate reader (Perkin Elmer, Waltham MA) according to the kit manufacturer's protocol. The reference compound, N-(5-{[(5-tert-butyl-1,3-oxazol-2-yl)methyl]sulfanyl}-1,3-thiazol-2-yl)piperidine-4-carboxamide, at 10 μM was used to define 100% response. Assay results for each compound were reported as IC50, the concentration giving 50% response, and Ymax, the maximum response observed with the compound.

Another assay addresses Cyclin E1 (Homo sapiens, UniProt P24864+Q96SW2). Nature of the assay: Cyclin E1 Cellular Degradation Assay (MSD). Details: endogenous in cells; host or cells: OVCAR3. The conditions noted are these: for DC50 / Dmax: Cyclin E1 cellular degradation; for Dmax: maximum degradation; for Ratio of GSPT1 DC50/Cyclin E1 DC50: selectivity for degradation of Cyclin E1 over GSPT1. The procedure:
Culturing cells: On Day 0, OVCAR3 cells were plated at 15,000 cells/well in 40 μL of culture medium (RPMI1640, 20% FBS, 0.01 insulin, 1% Anti/Anti) in a 384 well cell culture plate. Cell cultures were incubated for 24 hours at 37° C. and 5% CO2.
Coating MSD plates: On Day 1, rabbit anti-CCNE1 antibody (Abcam ab33911, 1 μg/mL in DPBS, […]) was dispensed to a Meso Scale Discovery plate (MSD L21XA). The MSD plate was spun briefly to ensure the solution coated the bottom of the well and incubated overnight at 4° C. On Day 2, the plate was washed 3 times with TBS +0.2% TWEEN, blocked for 1 hour with 3% MSD Blocker A (MSD R93AA-1, 30 μL/well), then washed again 3 times with TBS+0.2% TWEEN.
Treating and lysing cells: On Day 1, compounds of interest were dispensed into the cell cultures by acoustic dispensing technology. The cell cultures were then spun at 400 g for 4 minutes to disperse the compounds and incubated at 37° C. and 5% CO2 for 24 hours. After incubation, 40 μL of DPBS was added to the cell cultures to dilute the media. All liquid was gently discarded and immediately replaced with 30 μL of lysis buffer (MSD Tris Lysis buffer (MSD R60TX-2), Halt Protease inhibitor (ThermoFisher 78438), Phosphatase Inhibitor II (Sigma-Aldrich P5726), Phosphatase Inhibitor III (Sigma-Aldrich P0044), 0.02M PMSF (Sigma-Aldrich 7626), 0.1% SDS (VWR E719-100ML)). The plate was then sealed, shaken at 300 rpm at room temperature for 5 minutes, and freeze-thawed for optimum cell lysis.
Collecting data: After thawing, 25 μL of lysate was transferred to a coated MSD plate. The plate was then sealed and shaken at 300 rpm overnight in 4° C. On Day 3, the MSD plate was washed 3 times with TBS+0.2% TWEEN. Mouse anti-CCNE1 antibody (Abcam ab238081, 0.5 μg/mL in 1% MSD Blocker A, 10 μL/well) dispensed to the MSD plate, which was then sealed and shaken at room temperature for 3 hours. After the first antibody incubation, the plate was washed 3 times with TBS+0.2% TWEEN, then goat anti-mouse Sulfo-Tag antibody (MSD R32AC, 1 μg/mL in 1% MSD Blocker A, 10 μL/well) was dispensed to the MSD plate. The plate was sealed again and shaken at room temperature for 1 hour, then washed 3 times with TBS+0.2% TWEEN. After the final wash, 35 μL of 1× Read Buffer (MSD R92TC-1) was added to each well and the data was captured using the MSD plate reader. The reference compound, [2-(2,6-dioxopiperidin-3-yl)-4-methoxy-3-oxo-2,3-dihydro-1H-isoindol-5-yl]methyl N-[4-(3,4-difluorophenoxy)phenyl]carbamate, at […] was used to define […]. Assay results for each compound were reported as DC50, the concentration giving 50% response, and Dmax, the maximum response observed with the compound.

Chain of Cyclin E1 (P24864 whole entry): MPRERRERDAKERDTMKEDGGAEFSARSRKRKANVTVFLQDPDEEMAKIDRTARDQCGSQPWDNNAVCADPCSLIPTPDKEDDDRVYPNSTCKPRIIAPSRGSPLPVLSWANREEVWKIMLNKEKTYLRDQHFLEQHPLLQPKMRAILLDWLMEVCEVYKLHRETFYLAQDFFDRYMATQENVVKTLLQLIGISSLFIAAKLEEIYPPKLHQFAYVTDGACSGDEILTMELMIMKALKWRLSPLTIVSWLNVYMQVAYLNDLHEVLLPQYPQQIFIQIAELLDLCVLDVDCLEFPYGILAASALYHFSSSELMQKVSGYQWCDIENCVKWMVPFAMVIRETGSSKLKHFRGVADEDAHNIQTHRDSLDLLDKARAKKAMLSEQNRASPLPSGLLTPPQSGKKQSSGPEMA
Chain of Cyclin E1 (Q96SW2 whole entry): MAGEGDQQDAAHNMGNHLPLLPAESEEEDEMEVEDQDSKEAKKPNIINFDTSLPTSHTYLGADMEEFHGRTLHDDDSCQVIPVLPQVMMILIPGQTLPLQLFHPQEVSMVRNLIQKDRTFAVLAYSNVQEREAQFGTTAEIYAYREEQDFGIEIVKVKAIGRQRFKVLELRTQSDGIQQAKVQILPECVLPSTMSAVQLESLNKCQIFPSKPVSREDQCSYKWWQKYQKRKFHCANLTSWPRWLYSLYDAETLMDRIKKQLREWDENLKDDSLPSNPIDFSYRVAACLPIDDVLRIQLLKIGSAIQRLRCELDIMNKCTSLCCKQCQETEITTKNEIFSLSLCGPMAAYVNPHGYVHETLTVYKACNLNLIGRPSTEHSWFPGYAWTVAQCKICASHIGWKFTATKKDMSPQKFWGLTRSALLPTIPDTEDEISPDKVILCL
Chain of Cyclin E1 (Q16531 whole entry partner): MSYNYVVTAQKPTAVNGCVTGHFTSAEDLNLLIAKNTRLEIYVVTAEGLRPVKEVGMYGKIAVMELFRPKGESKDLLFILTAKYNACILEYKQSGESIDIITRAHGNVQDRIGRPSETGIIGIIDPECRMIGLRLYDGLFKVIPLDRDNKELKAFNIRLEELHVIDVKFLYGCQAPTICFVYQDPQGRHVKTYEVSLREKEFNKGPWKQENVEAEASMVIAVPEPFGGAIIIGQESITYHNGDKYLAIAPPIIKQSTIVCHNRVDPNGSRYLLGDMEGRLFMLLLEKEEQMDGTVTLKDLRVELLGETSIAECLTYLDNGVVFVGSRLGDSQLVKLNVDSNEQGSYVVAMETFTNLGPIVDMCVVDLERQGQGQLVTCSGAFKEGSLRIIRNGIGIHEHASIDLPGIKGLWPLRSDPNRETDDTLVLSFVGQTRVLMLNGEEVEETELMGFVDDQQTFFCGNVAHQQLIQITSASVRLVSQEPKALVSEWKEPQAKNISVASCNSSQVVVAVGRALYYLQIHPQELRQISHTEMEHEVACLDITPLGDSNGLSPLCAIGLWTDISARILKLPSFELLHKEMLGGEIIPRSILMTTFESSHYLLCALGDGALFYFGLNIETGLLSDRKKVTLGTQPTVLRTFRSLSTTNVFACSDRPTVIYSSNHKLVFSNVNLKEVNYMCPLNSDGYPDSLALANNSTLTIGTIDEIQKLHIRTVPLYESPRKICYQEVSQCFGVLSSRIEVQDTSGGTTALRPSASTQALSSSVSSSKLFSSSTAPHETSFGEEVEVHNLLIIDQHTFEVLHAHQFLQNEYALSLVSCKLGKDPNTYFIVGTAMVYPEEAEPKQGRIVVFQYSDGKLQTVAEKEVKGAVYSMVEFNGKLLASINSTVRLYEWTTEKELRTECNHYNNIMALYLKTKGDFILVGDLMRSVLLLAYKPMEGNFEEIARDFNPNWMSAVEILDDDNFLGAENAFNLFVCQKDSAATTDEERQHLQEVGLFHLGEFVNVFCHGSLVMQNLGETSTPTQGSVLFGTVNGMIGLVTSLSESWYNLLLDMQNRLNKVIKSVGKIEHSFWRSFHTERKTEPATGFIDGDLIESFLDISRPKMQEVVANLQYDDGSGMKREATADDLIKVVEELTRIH
Chain of GSPT1 (P15170 whole entry, the tested form may be a part): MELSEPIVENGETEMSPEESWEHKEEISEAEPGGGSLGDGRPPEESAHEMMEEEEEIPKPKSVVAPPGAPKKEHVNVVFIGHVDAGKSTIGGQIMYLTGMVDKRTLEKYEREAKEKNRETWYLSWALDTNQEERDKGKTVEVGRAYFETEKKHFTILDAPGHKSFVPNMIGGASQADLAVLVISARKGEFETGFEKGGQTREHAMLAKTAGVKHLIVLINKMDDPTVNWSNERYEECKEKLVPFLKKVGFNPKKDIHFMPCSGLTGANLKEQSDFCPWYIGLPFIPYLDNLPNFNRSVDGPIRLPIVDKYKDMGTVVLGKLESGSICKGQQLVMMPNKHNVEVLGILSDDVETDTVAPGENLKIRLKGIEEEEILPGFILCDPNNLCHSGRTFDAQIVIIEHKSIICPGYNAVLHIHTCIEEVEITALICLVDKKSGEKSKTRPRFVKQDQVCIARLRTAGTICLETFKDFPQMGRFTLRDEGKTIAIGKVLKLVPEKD
Chain of GSPT1 (Q96SW2 whole entry, the tested form may be a part): as the sequence (Q96SW2 whole entry) above
Chain of GSPT1 (Q16531 whole entry partner, the tested form may be a part): as the sequence (Q16531 whole entry partner) above

A word on the DC50: it is the midpoint of the concentration-degradation curve. Low values mean a more potent degrader, high ones a less potent degrader. A word on the Dmax: it is the greatest extent of degradation seen. By IC50 is commonly meant the concentration that gives 50% inhibition. On to `COc1ccccc1Oc1ccc(NC(=O)OCc2ccc3c(c2OC)C(=O)N(C2CCC(=O)NC2=O)C3)cc1` (centres unmarked) [Example 31, [2-(2,6-dioxopiperidin-3-yl)-4-methoxy-3-oxo-2,3-dihydro-1H-isoindol-5-yl]methyl N-[4-(2-methoxyphenoxy)phenyl]carbamate], for which, on GSPT1, the DC50 came to 6600 nM and the Dmax was found to be 64%. In the assay with Phospho-Rb (Ser807/811), half-maximal inhibition (IC50) was put at 2310 nM and the Emax was determined as 81%. On Cyclin E1, half-maximal degradation (DC50) was put at 735 nM, the Dmax was determined as 83% and the “Ratio of GSPT1 DC50/Cyclin E1 DC50” value worked out at 9.

In the case of `CC(C)Oc1c(COC(=O)Nc2ccc(Oc3cccc(F)c3)cc2)ccc2c1C(=O)N(C1CCC(=O)NC1=O)C2` (centres unmarked) [Example 123, [2-(2,6-dioxopiperidin-3-yl)-3-oxo-4-(propan-2-yloxy)-2,3-dihydro-1H-isoindol-5-yl]methyl N-[4-(3-fluorophenoxy)phenyl]carbamate], on GSPT1, the DC50 was over 14000 nM and the Dmax was 4%. Moreover, in the assay on Phospho-Rb (Ser807/811), half-maximal inhibition (IC50) required 110 nM and the Emax was found to be 121%. In addition, on Cyclin E1, the DC50 is 131 nM, the Dmax was 107% and the “Ratio of GSPT1 DC50/Cyclin E1 DC50” value is reported as over 107.

Consider `CC(C)(O)COc1c(COC(=O)Nc2ccc(Oc3ccc(F)cc3)cc2F)ccc2c1C(=O)N(C1CCC(=O)NC1=O)C2` (centres unmarked) [Example 162, [2-(2,6-dioxopiperidin-3-yl)-4-(2-hydroxy-2-methylpropoxy)-3-oxo-2,3-dihydro-1H-isoindol-5-yl]methyl N-[2-fluoro-4-(4-fluorophenoxy)phenyl]carbamate], for which, on GSPT1, the DC50 is over 14000 nM and the Dmax is 8%. In the assay on Phospho-Rb (Ser807/811), the IC50 is 24 nM and the Emax was determined as 133%. For the same molecule, on Cyclin E1, the DC50 is 27 nM, the Dmax stood at 107% and the “Ratio of GSPT1 DC50/Cyclin E1 DC50” value is given as over 521.

As for `O=C1CCC(N2Cc3ccc(COC(=O)Nc4ccc(Oc5ccc(F)c(F)c5)cc4)c(OC4CCCCC4)c3C2=O)C(=O)N1` (centres unmarked) [Example 137, [4-(cyclohexyloxy)-2-(2,6-dioxopiperidin-3-yl)-3-oxo-2,3-dihydro-1H-isoindol-5-yl]methyl N-[4-(3,4-difluorophenoxy)phenyl]carbamate], at GSPT1, the DC50 is over 14000 nM and the Dmax is 1%. Moreover, in the assay on Phospho-Rb (Ser807/811), the IC50 was 19 nM and the Emax turned out to be 123%. Further, at Cyclin E1, the DC50 was determined as 26 nM, the Dmax amounted to 108% and the “Ratio of GSPT1 DC50/Cyclin E1 DC50” value is reported as over 547.

Consider `CC(C)(O)COc1c(COC(=O)Nc2ccc(Oc3cc(F)cc(F)c3)cc2F)ccc2c1C(=O)N(C1CCC(=O)NC1=O)C2` (centres unmarked) [Example 164, [2-(2,6-dioxopiperidin-3-yl)-4-(2-hydroxy-2-methylpropoxy)-3-oxo-2,3-dihydro-1H-isoindol-5-yl]methyl N-[4-(3,5-difluorophenoxy)-2-fluorophenyl]carbamate], for which, at GSPT1, the DC50 was over 14000 nM and the Dmax was found to be 2%. Besides, in the assay on Phospho-Rb (Ser807/811), 25 nM corresponded to half-maximal inhibition (IC50) and the Emax was 142%. At Cyclin E1, the DC50 was 75 nM, the Dmax was 118% and the “Ratio of GSPT1 DC50/Cyclin E1 DC50” value is over 187.

Take `COc1c(COC(=O)Nc2ccc(Oc3ccc(Cl)c(F)c3)cc2F)ccc2c1C(=O)N(C1CCC(=O)NC1=O)C2` (centres unmarked) [Example 91, [2-(2,6-dioxopiperidin-3-yl)-4-methoxy-3-oxo-2,3-dihydro-1H-isoindol-5-yl]methyl N-[4-(4-chloro-3-fluorophenoxy)-2-fluorophenyl]carbamate]: on GSPT1, the DC50 was over 14000 nM and the Dmax is 20%. Moreover, in the assay on Phospho-Rb (Ser807/811), half-maximal inhibition (IC50) was put at 160 nM and the Emax was 101%. Further, at Cyclin E1, it took 223 nM to reach half-maximal degradation (DC50), the Dmax stood at 106% and the “Ratio of GSPT1 DC50/Cyclin E1 DC50” value is recorded as over 63.

On to `O=C1CCC(N2Cc3ccc(COC(=O)Nc4ccc(Oc5ccccc5)cc4)c(Oc4cccnc4)c3C2=O)C(=O)N1` (centres unmarked) [Example 171, [2-(2,6-dioxopiperidin-3-yl)-3-oxo-4-(pyridin-3-yloxy)-2,3-dihydro-1H-isoindol-5-yl]methyl N-(4-phenoxyphenyl)carbamate], for which, on GSPT1, the DC50 is over 14000 nM and the Dmax was 0%. In the assay on Phospho-Rb (Ser807/811), it took 160 nM to reach half-maximal inhibition (IC50) and the Emax came to 130%. Besides, at Cyclin E1, the DC50 is 170 nM, the Dmax turned out to be 107% and the “Ratio of GSPT1 DC50/Cyclin E1 DC50” value was over 82.

`CC(C)Oc1c(COC(=O)Nc2ccc(Oc3cccc(Cl)c3)cc2)ccc2c1C(=O)N(C1CCC(=O)NC1=O)C2` (centres unmarked) [Example 58, [2-(2,6-dioxopiperidin-3-yl)-3-oxo-4-(propan-2-yloxy)-2,3-dihydro-1H-isoindol-5-yl]methyl N-[4-(3-chlorophenoxy)phenyl]carbamate]: on GSPT1, the DC50 is over 14000 nM and the Dmax stood at 48%. For the same molecule, in the assay on Phospho-Rb (Ser807/811), the IC50 stood at 298 nM and the Emax worked out at 109%. At Cyclin E1, the DC50 came to 139 nM, the Dmax is 104% and the “Ratio of GSPT1 DC50/Cyclin E1 DC50” value was over 100.
